From article PMC12454639, “Direct disassembly of α-syn preformed fibrils into α-syn monomers by an all-D-peptide” (NPJ Parkinson's Disease, 2025)

Tests used:
PC12 cells = type: cell-based; settings: 15 µM peptide with 30 nM PFF; n = 4
Description: PC12 cells (Leibniz Institute DSMZ, GE) were cultivated on collagen A-coated (Biochrom GmbH, GE) tissue culture flasks in RPMI 1640 medium supplemented with 5% fetal calf serum and 10% horse serum in a 95% humidified atmosphere with 5% CO2 at 37 °C. 10,000 cells per well in a volume of 100 µl were seeded on collagen A-coated 96-well plates (Thermo Fisher Scientific, USA) and were incubated for 24 h at 37 °C and 300 rpm in a thermo cycler. […] In addition, 15 µM of the peptides alone, cell media, buffer without peptides and 0.1% Triton X-100 (cytotoxic compound) served as controls. After further incubation in a 95% humidified atmosphere with 5% CO2 at 37 °C for 24 h, cell viability was measured using the Cell Proliferation Kit I (MTT) (Roche Applied Science, CH) according to the manufacturer’s protocol. The MTT formazan product was quantified by measuring the absorbance at 570 nm corrected by subtraction of the absorbance at 660 nm in a FLUOStar Optima plate reader (BMG Labtech, GE). All results were normalized to untreated cells grown in medium only. Test on significance was performed using one-way ANOVA with Bonferroni post hoc analysis (OriginPro 2020, OriginLab, USA; n = 4).
Test on significance was performed using one-way ANOVA with Bonferroni post hoc analysis: * […], *** p ≤ 0.01. Mean data are shown with ±SD (n = 4). While the cell viability was reduced by 50 % in the presence of 30 nM soluble small α-syn PFF alone, no toxic effect of the compounds on PC12 was observed. […] Thus, similar cell viability saving effects were found for SVD-1a using a 30-fold lower concentration.

small α-syn PFF seeds = assay: Seeded ThT aggregation assay; type: biochemical; settings: discussion statement
Description: The Thioflavin T (ThT) assay is commonly used for the visualization of α-syn fibrilization, since the dye ThT is able to bind to the amyloidogenic cross-β-sheet proportions of fibril structures. Recombinant α-syn was thawed on ice and centrifuged for 30 min at 21,000 × g and 4 °C. The concentration of the supernatant was determined as described previously. Lyophilized D-peptides were thawed at RT for 1 h and dissolved in 500 µl PBS pH 7.4. After centrifugation for 30 min at 21,000 × g the supernatant concentration was determined by UV–vis using the corresponding extinction coefficient at A280. All ThT assay experiments were performed at 37 °C with 15 µM ThT and 0.05% sodium azide (w/v) in PBS pH 7.4 if not otherwise stated. ThT fluorescence was monitored with bottom optics at λex = 448 nm and λem = 482 nm in a fluorescence plate reader with orbital averaging on 3 mm (Clariostar or Polarstar Optima, BMG labtech, GE). Prior to measurement start, 120 µl sample solution was transferred to a non-binding 96-half area well plate with transparent flat bottom (Corning, USA). One borosilicate glass bead (d = 3.0 mm, Hilgenberg, GE) was added to each well for all de novo aggregation assays. For seeded aggregation assays, no bead was used, and samples were incubated under quiescent conditions. Wells that surrounded the sample wells were filled with the same volume of buffer to improve heat distribution. Experiments were performed with five replicates (n = 5) if not otherwise stated.
ThT assay was used for different purposes. […] Lag-time and t½ were calculated as described previously. […] Measurements were taken every 5 min (n = 3).
small α-syn PFF seeds were prepared as described previously with some modifications. First, insoluble PFF were produced by incubation of 300 µM recombinant α-syn in a LoBind reaction tube (Eppendorf GmbH, GE) with one borosilicate glass bead (d = 3.0 mm; Hilgenberg, DE) in 20 mM NaPi, pH 7.0, 150 mM NaCl, 0.05% (w/v) sodium azide for one week at 37 °C. The insoluble PFF were harvested by ultracentrifugation at 100,000 × g for 30 min at 4 °C, and the pellet was washed several times with 20 mM NaPi, pH 7.0, 150 mM NaCl. The monomer equivalent concentration was determined by measuring the α-syn concentration in the supernatant after the first centrifugation and subtracting it from the start concentration for fibrilization. […]
ThT fluorescence progression was measured in a 96-well non-binding half-area plate (Corning, USA) with a FLUOStar platereader (BMG labtech, GE) at λex = 448 nm and λem = 482 nm. […] 10 µM α-syn monomer was incubated with 5, 10 and 20 µM peptide at 37 °C, adding one borosilicate glass bead per well (d = 3.0 mm, Hilgenberg, GE) with continuous orbital shaking at 300 rpm in between reads. […]

[1] = system: α-synA53T–YFP cells (HEK293T)
[2] = system: α-synA53T–YFP (HEK293T cells); assay: Seeded intracellular aggregation in α-synA53T–YFP cells; type: cell-based, human; settings: day 3
Description: Fig. 5 SVD-1a inhibits seeded α-syn aggregation in cells. To validate the inhibitory effect of SVD-1a in cells, we used the α-synA53T–YFP cell system, which stably expresses human α-syn with the familial A53T mutation fused to YFP in HEK293T cells and enables fluorescence-based detection of aggregates that show up as highly fluorescent spots within the cells, clearly above background, intracellularly after seeding with small α-syn PFF seeds. In order to avoid interference of the peptide with the uptake of small α-syn PFF seeds, we performed a two-step transfection starting with a first transfection of the peptide and a second transfection with PFFs. […] To quantify the number of cells with aggregates in our images and to avoid experimental bias, we used a fully automated algorithm for image analysis. […] One asterisk denotes p values < 0.05 and three asterisks a p value < 0.001. Error bars indicate standard deviation. […] Treatment with increasing concentrations of SVD-1a, here imaged at 25 µM, led to a concentration-dependent reduction in the number of cells with aggregates (H-J). Panels B, E, and H show nuclei stained with Hoechst 33342. Panels C, F, and I show αSynA53T–YFP fluorescence. Panels D, G, and J show merged images. The scale bar in J represents 100 µm and applies to all panels. The viability of the cells was not reduced by transfection with seeds or in SVD-1a, as shown in Supplementary Fig. 15. Confirmation that highly fluorescent aggregates contain α-syn is shown in Supplementary Fig. 14 by co-immunostaining with syn-211 antibody, anti-α-syn (phospho S129) antibody and 5G4 antibody.
A construct encoding full-length A53T-mutated human α-syn fused with YFP at the C-terminus was synthesized and introduced into the pMK–RQ expression vector (GeneArt; Thermo Fisher Scientific, USA). The α-synA53T–YFP construct was subcloned into the pIRESpuro3 vector (Clontech; Takara Bio, JPN) using NheI (5′) and NotI (3′) restriction sites. HEK293T cells (American Type Culture Collection) were cultured in high-glucose Dulbecco’s modified Eagle’s medium (DMEM; Sigma-Aldrich, USA) supplemented with 10% fetal calf serum (Sigma-Aldrich, USA), and 50 units/ml penicillin as well as 50 μg/ml streptomycin (Sigma-Aldrich, USA). Cells were cultured in a humidified atmosphere of 5% CO2 at 37 °C. Cells plated in DMEM were transfected using Lipofectamine 2000 (Invitrogen; Thermo Fisher Scientific, USA). Stable cells were selected in DMEM containing 1 μg/ml puromycin (EMD Millipore, USA). Monoclonal lines were generated by fluorescence-activated cell sorting of a polyclonal cell population in 96-well plates using a MoFlo XDP cell sorter (Beckman Coulter, USA). Finally, the clonal cell line B5 was selected from among 24 clonal cell lines and is referred to as αSynA53T–YFP cells. Peptides were incubated with 1.5% Lipofectamine 2000 in OptiMEM for 2 h at room temperature. […] On day 3 the cells were imaged with an IN Cell Analyzer 6500HS System (Cytiva, USA) using the blue and green fluorescence channel, and analyzed using IN Carta Image Analysis Software (Cytiva, USA) after an algorithm was established to identify intracellular aggregates in living cells. For each condition, we used four wells and took 16 images per well, which were analyzed by a fully automated algorithm to avoid bias. […]

monomeric α-syn = assay: Affinity of negative-control peptide to monomeric α-syn (method not given); type: binding; settings: negative-control peptide kgvgnleyqlwalegk-NH2; method not stated

## ihyawtphtkhmqewe-NH2 [SVD-1_scrambled, reference compound]
PC12 cells
  cell viability saving effect: Slight increase of cell viability saving effect

## ihyawtphtrhlqewerrrrr-NH2 [SVD-1_scrambled+5r, reference compound]
Small α-syn PFF seeds
  effect of control peptide relative to SVD-1 in seeded assay: improved effects compared to the parental sequence SVD-1 in the seeded assay

## kgvgnleyqlwalegk-NH2 [negative-control peptide, reference compound]
[1]
  cell viability, PFF-seeded α-synA53T–YFP cells: did not induce significantly different luminescence in comparison to unseeded cells or seeded cells without peptide treatment
[2]; 25 µM peptide, transfected, then 30 nM small α-syn PFF seeds
  aggregate-positive cells: 85%
[2]; peptide transfection, then 30 nM PFF seeds
  inhibition of intracellular seeded α-syn aggregation: not
Monomeric α-syn
  affinity to monomeric α-syn: no affinity to monomeric α-syn
